Usually EC50 stands for the concentration at which the effect is half-maximal. A high value points to a less potent agent.

These results are taken from article PMC7932521, “2-aminobenzimidazoles for leishmaniasis: From initial hit discovery to in vivo profiling” (PLoS Neglected Tropical Diseases, 2021).

Where two headings read alike, the source gives them in different places.

Data set [1] in a line: Medium protein binding. It counts as in vitro ADME. As to conditions: for Medium binding: % bound; for Media Binding: S1 Data. The protocol: For plasma protein binding, pooled plasma was thawed in a water bath at 37°C and centrifuged at 4,000 rpm for 5 min to remove any clots. The pH value was measured and adjusted to 7.4, if necessary. RPMI medium (pH 7.4) supplemented with 10% fetal calf serum was used. Working solutions (400 μM) of test compounds were prepared by diluting appropriate volume of the stock solutions with DMSO. Working solutions (400 μM) were spiked into plasma to achieve 2 μM final concentrations as loading solutions. The concentration of organic solvent in the final solutions was 0.5% DMSO. The dialysis instrument was assembled following manufacturer’s instructions. Aliquots of loading solution were loaded in triplicate to the donor side of each dialysis well and dialyzed against an equal volume of dialysis buffer. The plate was shaken and incubated for 6 hours in a humidified incubator with 5% CO2 at 37°C. At the end of dialysis, aliquots of dialysate and retentate were removed into sample collection plates. Each sample was matched with an opposite blank buffer or plasma, with a ratio of matrix:dialysis buffer of 50:50 (v:v) in each well and participated with 500μL of stop solution (50% acetonitrile/methanol; internal standards—200 ng/mL tolbutamide, labetalol and 50 ng/mL metformin). All sample collection plates were rotated at 800 rpm for 5 min to mix samples and centrifuged at 20°C, 4000 rpm for 20 min. Aliquots of supernatant of all the samples were removed and injected into LC-MS/MS. Results were calculated as the percentage of remaining parent compound in plasma or medium after incubation.

Data set [2] has as its target Cav1.2 (L-type) (Mus musculus, UniProt Q01815). Description: Bioprofiling 6pt Ag Cav1.2 (L-type) ND7/23. The format is cell-based. Conditions: mouse/rat, ND7/23 cells; agonist readout. The protocol: (§1) The compounds were evaluated across a panel of 20 liability targets (37 functional assays) which included functional cell-based GPCRs and ion channels in both agonist and antagonist readout, measuring calcium flux and biochemical functional assays for nuclear hormone receptors and phosphodiesterases using TR-FRET format, in a 6 point 1:3 dilution dose series (maximum final concentration of 10 μM).

In data set [3] the test system is PMM (Primary Mouse Macrophages). In words: Cytotoxicity on primary peritoneal mouse macrophages. The format is cell-based. As to conditions: Mus musculus, Macrophage. The gist of the method: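 Host cells were peritoneal macrophages from Swiss mice, harvested after 2 days of starch stimulation and kept in RPMI-1640 with 5% FCS at 37 °C, 5% CO2. Compounds were tested in 4-fold dilutions from 64 μM, with final DMSO below 1%.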

The target of data set [4] is T1, 5-HT1A (Homo sapiens, UniProt P08908).
T1 construct: expressed in transfected cells; host or cells: CHO
T1 sequence (P08908 1-422): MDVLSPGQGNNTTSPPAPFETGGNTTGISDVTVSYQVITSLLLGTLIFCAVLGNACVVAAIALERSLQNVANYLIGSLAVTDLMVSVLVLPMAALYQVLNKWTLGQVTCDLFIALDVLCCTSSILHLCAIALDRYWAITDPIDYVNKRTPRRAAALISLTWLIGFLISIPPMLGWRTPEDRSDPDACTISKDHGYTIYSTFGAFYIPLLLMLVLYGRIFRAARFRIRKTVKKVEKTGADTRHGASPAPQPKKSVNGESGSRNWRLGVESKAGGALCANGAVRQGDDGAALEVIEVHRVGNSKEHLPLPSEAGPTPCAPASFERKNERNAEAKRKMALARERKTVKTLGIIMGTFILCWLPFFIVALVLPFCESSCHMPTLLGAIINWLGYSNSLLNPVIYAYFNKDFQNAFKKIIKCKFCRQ
In words: Bioprofiling 6pt Ag 5-HT1A CHO. It counts as cell-based. Conditions: agonist readout. The method, then: as §1

Data set [5] addresses T2, H1 (Homo sapiens, UniProt P35367).
T2 construct: expressed in transfected cells; host or cells: CHO
Description: Bioprofiling 6pt Ag H1 CHO. It counts as cell-based. As to conditions: agonist readout. The method, then: as §1

In data set [6] the target is T2, H1. Description: Bioprofiling 6pt Antag H1 CHO. As to conditions: antagonist readout vs Histamine. It counts as cell-based. The method, then:
as §1

Data set [7] addresses T3, M2 (Homo sapiens, UniProt P08172).
T3 construct: expressed in transfected cells; host or cells: CHO
T3 sequence (P08172 1-466): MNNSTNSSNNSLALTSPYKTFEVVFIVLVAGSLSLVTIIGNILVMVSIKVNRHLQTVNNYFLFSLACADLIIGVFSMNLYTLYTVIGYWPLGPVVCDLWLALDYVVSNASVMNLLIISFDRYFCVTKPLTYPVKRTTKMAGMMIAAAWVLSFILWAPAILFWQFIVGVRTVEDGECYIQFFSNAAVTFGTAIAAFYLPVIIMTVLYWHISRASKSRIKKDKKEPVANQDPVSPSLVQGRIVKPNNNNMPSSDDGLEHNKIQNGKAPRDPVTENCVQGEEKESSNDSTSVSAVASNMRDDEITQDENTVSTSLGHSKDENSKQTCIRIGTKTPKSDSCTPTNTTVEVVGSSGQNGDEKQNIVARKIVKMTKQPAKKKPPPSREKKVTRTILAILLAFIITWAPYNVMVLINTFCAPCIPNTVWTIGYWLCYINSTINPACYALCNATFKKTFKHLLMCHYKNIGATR
In words: Bioprofiling 6pt Ag M2 CHO. It counts as cell-based. As to conditions: agonist readout. The protocol:
as §1

For data set [8], the target named is T4, Alpha2A (Homo sapiens, UniProt P08913).
T4 construct: expressed in transfected cells; host or cells: CHO
T4 sequence (P08913 1-465): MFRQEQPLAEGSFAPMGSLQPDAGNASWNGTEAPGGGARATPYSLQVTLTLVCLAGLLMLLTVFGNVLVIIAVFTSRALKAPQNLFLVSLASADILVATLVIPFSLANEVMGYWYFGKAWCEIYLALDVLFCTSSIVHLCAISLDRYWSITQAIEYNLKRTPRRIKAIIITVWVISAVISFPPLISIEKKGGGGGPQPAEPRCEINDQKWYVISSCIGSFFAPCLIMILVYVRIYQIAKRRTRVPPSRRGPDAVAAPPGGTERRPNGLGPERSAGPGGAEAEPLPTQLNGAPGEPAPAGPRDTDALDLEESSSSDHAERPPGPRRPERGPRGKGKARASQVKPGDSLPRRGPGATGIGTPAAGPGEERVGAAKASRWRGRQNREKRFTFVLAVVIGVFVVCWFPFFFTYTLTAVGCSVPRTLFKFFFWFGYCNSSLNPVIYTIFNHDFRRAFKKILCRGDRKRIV
In words: Bioprofiling 6pt Ag Alpha2A CHO. The format is cell-based. As to conditions: agonist readout. The protocol:
as §1

For data set [9], the target named is T3, M2. Description: Bioprofiling 6pt Antag M2 CHO. As to conditions: antagonist readout vs Carbachol. The format is cell-based. The protocol:
as §1

Where [10] appears, read: read-out: IC-50 PMM (Primary Mouse Macrophages).

T2 sequence (P35367 whole entry): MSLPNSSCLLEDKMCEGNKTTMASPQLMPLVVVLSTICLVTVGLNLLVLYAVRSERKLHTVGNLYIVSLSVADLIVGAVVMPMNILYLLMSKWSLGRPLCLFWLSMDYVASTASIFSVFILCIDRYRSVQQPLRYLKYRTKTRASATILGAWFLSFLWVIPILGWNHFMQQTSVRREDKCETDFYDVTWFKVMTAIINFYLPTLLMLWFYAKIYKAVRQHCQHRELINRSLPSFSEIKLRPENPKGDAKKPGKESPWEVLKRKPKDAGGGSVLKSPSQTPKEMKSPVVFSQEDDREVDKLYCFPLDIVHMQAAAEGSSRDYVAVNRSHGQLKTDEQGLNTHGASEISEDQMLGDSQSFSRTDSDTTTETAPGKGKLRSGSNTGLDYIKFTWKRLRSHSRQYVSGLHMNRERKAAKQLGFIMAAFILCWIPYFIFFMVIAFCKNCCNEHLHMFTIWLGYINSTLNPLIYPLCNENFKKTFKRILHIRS
Sequence of Cav1.2 (L-type) (Q01815 whole entry): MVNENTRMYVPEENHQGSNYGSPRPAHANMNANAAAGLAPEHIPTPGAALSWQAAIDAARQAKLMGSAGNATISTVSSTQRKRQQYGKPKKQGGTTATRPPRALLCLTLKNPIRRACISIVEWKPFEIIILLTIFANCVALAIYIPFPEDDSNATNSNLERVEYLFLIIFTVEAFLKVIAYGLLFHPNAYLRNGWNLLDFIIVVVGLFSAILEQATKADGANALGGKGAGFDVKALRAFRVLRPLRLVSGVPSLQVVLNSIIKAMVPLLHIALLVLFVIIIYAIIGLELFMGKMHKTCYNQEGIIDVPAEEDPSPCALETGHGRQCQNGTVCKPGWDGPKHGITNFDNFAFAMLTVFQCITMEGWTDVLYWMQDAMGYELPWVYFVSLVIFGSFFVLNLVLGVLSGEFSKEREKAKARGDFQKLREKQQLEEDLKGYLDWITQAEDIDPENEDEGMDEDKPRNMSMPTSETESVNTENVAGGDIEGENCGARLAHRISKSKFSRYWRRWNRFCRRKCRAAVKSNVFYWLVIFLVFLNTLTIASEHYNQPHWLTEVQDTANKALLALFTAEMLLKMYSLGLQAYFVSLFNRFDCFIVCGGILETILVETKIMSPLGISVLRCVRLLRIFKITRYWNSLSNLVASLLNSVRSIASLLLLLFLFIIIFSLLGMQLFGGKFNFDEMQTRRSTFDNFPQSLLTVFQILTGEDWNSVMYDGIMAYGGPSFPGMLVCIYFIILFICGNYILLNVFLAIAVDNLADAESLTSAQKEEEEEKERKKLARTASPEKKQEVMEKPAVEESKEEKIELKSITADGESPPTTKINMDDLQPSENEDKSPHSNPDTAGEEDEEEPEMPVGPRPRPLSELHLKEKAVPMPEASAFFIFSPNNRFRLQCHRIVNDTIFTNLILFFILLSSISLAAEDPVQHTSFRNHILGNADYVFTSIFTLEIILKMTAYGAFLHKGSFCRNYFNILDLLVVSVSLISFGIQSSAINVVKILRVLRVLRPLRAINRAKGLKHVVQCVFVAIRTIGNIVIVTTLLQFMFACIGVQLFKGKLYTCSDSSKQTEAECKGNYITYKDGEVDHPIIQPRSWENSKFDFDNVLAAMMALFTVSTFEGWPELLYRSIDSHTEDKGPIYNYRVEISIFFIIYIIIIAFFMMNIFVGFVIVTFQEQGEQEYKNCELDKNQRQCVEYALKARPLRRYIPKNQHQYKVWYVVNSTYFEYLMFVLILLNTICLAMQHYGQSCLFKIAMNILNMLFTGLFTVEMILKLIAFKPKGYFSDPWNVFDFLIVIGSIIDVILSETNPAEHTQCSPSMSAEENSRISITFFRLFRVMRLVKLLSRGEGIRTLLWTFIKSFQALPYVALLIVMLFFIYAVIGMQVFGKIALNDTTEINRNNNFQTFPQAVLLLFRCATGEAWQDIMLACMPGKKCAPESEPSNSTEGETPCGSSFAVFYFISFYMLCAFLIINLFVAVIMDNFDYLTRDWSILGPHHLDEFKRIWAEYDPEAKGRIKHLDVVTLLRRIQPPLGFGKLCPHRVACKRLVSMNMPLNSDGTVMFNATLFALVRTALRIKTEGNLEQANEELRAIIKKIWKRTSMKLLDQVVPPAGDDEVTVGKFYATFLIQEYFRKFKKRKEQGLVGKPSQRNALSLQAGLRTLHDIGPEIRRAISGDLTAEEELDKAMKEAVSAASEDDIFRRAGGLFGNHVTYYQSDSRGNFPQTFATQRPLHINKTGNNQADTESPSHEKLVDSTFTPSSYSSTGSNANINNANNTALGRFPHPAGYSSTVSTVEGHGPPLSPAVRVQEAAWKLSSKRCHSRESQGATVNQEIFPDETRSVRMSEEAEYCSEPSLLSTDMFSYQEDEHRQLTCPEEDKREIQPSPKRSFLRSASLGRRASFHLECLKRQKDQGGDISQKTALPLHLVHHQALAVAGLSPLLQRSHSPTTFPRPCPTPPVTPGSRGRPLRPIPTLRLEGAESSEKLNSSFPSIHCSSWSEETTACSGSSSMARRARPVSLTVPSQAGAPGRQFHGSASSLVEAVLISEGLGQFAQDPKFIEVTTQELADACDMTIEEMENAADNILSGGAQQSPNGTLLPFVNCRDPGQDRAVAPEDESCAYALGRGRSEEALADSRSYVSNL

Turning to `N#Cc1ccc2nc(NC(=O)c3ccnc(C(F)(F)F)c3)n(CC(F)(F)F)c2c1` [Compound 44, O=C(c1ccnc(C(F)(F)F)c1)Nc2nc(ccc(C#N)c3)c3n2CC(F)(F)F], the Medium binding in [1] came to 88.7%. Further, in [1], the “Media Binding” value is 88.65%. Also, the concentration giving a half-maximal response (EC50) in data set [2], in data set [4], in data set [5], in data set [7] and in data set [8] was above 10 µM throughout. In addition, the IC50 in [3] (read-out: PMM IC50) was 4 µM; in data set [6], above 10 µM; in data set [9], above 10 µM.

Regarding `COc1ccc(C(=O)Nc2nc3ccc(C#N)cc3n2CC(F)(F)F)cn1` [Compound 43, O=C(c1ccc(OC)nc1)Nc2nc(ccc(C#N)c3)c3n2CC(F)(F)F], the “Media Binding” value in data set [1] is recorded as 56.74%. The EC50 in data set [2], in [4], in data set [5], in data set [7] and in data set [8] was above 10 µM in each case. Besides, the IC50 was 32 µM in [3] (read-out: PMM IC50), above 10 µM in data set [6] and above 10 µM in [9].

On to `Cn1nccc1C(=O)Nc1nc2ccc(C#N)cc2n1CC(C)(C)C` [Compound 29, O=C(Nc1n(CC(C)(C)C)c(c2n1)cc(C#N)cc2)c3n(C)ncc3], for which the “Media Binding” value in data set [1] is on record as 57.20%. Moreover, the concentration giving a half-maximal response (EC50) in data set [2], in data set [4], in [5], in data set [7] and in data set [8] was above 10 µM throughout. In addition, the IC50 in [3] (setting [10]) was 49.3 µM; in data set [3] (read-out: PMM IC50) it was 27.4 µM; in data set [6], above 10 µM; in data set [9], above 10 µM.

Turning to `N#Cc1ccc2nc(NC(=O)c3ccc(C(F)(F)F)nc3)n(CC(F)(F)F)c2c1` [Compound 45, O=C(c1ccc(C(F)(F)F)nc1)Nc2nc(ccc(C#N)c3)c3n2CC(F)(F)F], the “Media Binding” value in data set [1] was 83.98%. Besides, the 50% effective concentration (EC50) in [2], in [4], in data set [5], in data set [7] and in data set [8] was above 10 µM each time. Also, the values for the IC50 in [3] (read-out: PMM IC50), in [6] and in data set [9] were 8 µM, above 10 µM and above 10 µM, respectively.

For `Cn1nccc1C(=O)Nc1nc2ccc(C#N)cc2n1CC(F)(F)F` [Compound 30, O=C(c1ccnn1C)Nc2nc(ccc(C#N)c3)c3n2CC(F)(F)F], the Medium binding in [1] turned out to be 29.2%. In data set [1], the “Media Binding” value is reported as 29.15%. For the same compound, the EC50 in data set [2], in data set [4], in [5], in data set [7] and in data set [8] was above 10 µM each time. Also, the IC50 in data set [3] (read-out: PMM IC50) is 32 µM; in [6], above 10 µM; in [9], above 10 µM.

`Cn1nc(C(F)(F)F)cc1C(=O)Nc1nc2ccc(C#N)cc2n1CC(F)(F)F` [Compound 39, O=C(c1cc(C(F)(F)F)nn1C)Nc2nc(ccc(C#N)c3)c3n2CC(F)(F)F] gave a Medium binding in data set [1] of 88.3%. Moreover, the “Media Binding” value in [1] was 88.34%. The EC50 in data set [2], in data set [4], in [5], in data set [7] and in data set [8] was above 10 µM in each case. In addition, the IC50 is 34.3 µM in data set [3] (setting [10]), 1.26 µM in data set [3] (read-out: PMM IC50), above 10 µM in data set [6] and above 10 µM in data set [9].
